The values below come from ChEMBL document CHEMBL5726728, “T-type calcium channel modulator and uses thereof” (2019).

Each structure is given as a SMILES string.

One assay concerns the target Cannabinoid receptor 2 (Homo sapiens, UniProt P34972). Description: (§1) As used herein, the term T-type calcium channel blocker refers to a compound that can modulate, in particular inhibit or reduce activation of T-type calcium channels. […] The term about refers to ±20%, typically ±10%, and often ±5% of the numeric value.
The next assay deals with Cannabinoid receptor 1 (Rattus norvegicus, UniProt P20272). The assay is described as §1.
Cannabinoid receptor 1, sequence (P20272 whole entry): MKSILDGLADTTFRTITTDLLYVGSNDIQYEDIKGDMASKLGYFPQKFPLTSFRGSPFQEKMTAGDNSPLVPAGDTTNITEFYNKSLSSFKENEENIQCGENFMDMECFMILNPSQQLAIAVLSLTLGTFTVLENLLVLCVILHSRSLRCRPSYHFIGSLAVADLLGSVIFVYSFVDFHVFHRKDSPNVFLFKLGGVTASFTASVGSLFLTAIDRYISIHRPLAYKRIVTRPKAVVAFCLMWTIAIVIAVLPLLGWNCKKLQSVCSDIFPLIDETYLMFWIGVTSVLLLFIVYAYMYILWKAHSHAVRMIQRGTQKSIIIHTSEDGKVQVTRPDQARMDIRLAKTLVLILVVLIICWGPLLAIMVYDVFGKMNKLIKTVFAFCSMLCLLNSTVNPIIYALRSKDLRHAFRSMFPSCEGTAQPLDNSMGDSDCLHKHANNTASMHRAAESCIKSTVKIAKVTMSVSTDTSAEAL

Cannabinoid receptor 2, sequence (P34972 whole entry): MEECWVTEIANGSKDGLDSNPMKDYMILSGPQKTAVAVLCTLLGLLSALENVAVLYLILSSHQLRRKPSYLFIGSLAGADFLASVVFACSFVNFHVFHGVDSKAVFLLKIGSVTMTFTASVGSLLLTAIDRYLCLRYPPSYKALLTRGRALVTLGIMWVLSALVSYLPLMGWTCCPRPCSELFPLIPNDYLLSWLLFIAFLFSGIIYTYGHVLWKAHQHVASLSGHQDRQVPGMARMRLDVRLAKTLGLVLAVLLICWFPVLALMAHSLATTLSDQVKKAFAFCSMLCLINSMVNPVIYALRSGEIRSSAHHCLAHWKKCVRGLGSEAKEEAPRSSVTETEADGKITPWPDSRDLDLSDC

Consider `CCCCCn1c2ccccc2c2cc(C(=O)N3CCN(CC(=O)NC(C)(C)C)CC3)ccc21`, for which the Ki at Cannabinoid receptor 2 is 1970 nM; on Cannabinoid receptor 1 it was 15 nM.

For orientation: Ki means a measure of affinity in units of concentration, obtained from inhibition or displacement.
